According to ChEMBL document CHEMBL5715949, “Discovery of a selective irreversible BMX inhibitor for prostate cancer” (ACS Chem Biol, 2013):
Active and inactive are the calls of the source. No cut-off for these calls is given here.

Columns and labels:
[1] = molecular target: Non-receptor tyrosine-protein kinase TYK2 (Homo sapiens) (UniProt P29597); experiment: Inhibition of TYK2 JH1 domain (unknown origin) assessed as remaining activity at 1 uM by Kinome scan method relative to control
[2] = molecular target: Serine/threonine-protein kinase 10 (Homo sapiens) (UniProt O94804); experiment: Inhibition of LOK (unknown origin) assessed as remaining activity at 1 uM by Kinome scan method relative to control
[3] = molecular target: Focal adhesion kinase 1 (Homo sapiens) (UniProt Q05397); experiment: Inhibition of FAK (unknown origin) assessed as remaining activity at 1 uM by Kinome scan method relative to control
[4] = molecular target: Protein kinase C iota type (Homo sapiens) (UniProt P41743); experiment: Inhibition of PRKCI (unknown origin) assessed as remaining activity at 1 uM by Kinome scan method relative to control
[5] = molecular target: Proto-oncogene tyrosine-protein kinase receptor Ret (Homo sapiens) (UniProt P07949); experiment: Inhibition of RET (unknown origin) assessed as remaining activity at 1 uM by Kinome scan method relative to control
[6] = molecular target: MAP/microtubule affinity-regulating kinase 4 (Homo sapiens) (UniProt Q96L34); experiment: Inhibition of MARK4 (unknown origin) assessed as remaining activity at 1 uM by Kinome scan method relative to control
[7] = molecular target: Tyrosine-protein kinase TXK (Homo sapiens) (UniProt P42681); experiment: Inhibition of TXK (unknown origin) assessed as remaining activity at 1 uM by Kinome scan method relative to control
[8] = Inhibition of PI3K/AKT/mTOR signalling pathway in human RV-1 cells assessed as decrease in AKT phosphorylation at T308 residue at 2.5 uM incubated for 4 hrs by immunoblot analysis; assay type: cell-based
[9] = molecular target: Platelet-derived growth factor receptor alpha (Homo sapiens) (UniProt P16234); experiment: Inhibition of PDGFRalpha (unknown origin) assessed as remaining activity at 1 uM by Kinome scan method relative to control
[10] = system: Mast/stem cell growth factor receptor Kit (Homo sapiens), P10721 [D816H]; experiment: Inhibition of KIT D816H mutant (unknown origin) assessed as remaining activity at 1 uM by Kinome scan method relative to control
[11] = molecular target: Megakaryocyte-associated tyrosine-protein kinase (Homo sapiens) (UniProt P42679); experiment: Inhibition of CTK (unknown origin) assessed as remaining activity at 1 uM by Kinome scan method relative to control
[12] = molecular target: Proto-oncogene tyrosine-protein kinase Src (Homo sapiens) (UniProt P12931); experiment: Inhibition of SRC (unknown origin) assessed as remaining activity at 1 uM by Kinome scan method relative to control
RV-1 [13] = experiment: Induction of apoptosis in human RV-1 cells at 2.5 uM incubated for 5 days in presence of […] by propidium iodide staining based flow cytometric analysis; assay type: functional, cell-based; conditions: time 5.0 day
BaF3 = experiment: Antiproliferative activity against mouse BaF3 cells expressing TEL-fused JAK1 assessed growth inhibition incubated for 2 to 5 days by CellTiter-Glo assay; assay type: functional; conditions: time 2-5 day
[14] = molecular target: Vascular endothelial growth factor receptor 2 (Homo sapiens) (UniProt P35968); experiment: Inhibition of VEGFR2 (unknown origin) assessed as remaining activity at 1 uM by Kinome scan method relative to control
[15] = molecular target: Platelet-derived growth factor receptor beta (Homo sapiens) (UniProt P09619); experiment: Inhibition of PDGFRbeta (unknown origin) assessed as remaining activity at 1 uM by Kinome scan method relative to control
[16] = molecular target: Serine/threonine-protein kinase tousled-like 1 (Homo sapiens) (UniProt Q9UKI8); experiment: Inhibition of TLK1 (unknown origin) assessed as remaining activity at 1 uM by Kinome scan method relative to control
[17] = system: Tyrosine-protein kinase ABL1 (Homo sapiens), P00519 [E255K]; experiment: Inhibition of phosphorylated ABL1 E255K mutant (unknown origin) assessed as remaining activity at 1 uM by Kinome scan method relative to control
[18] = molecular target: Activin receptor type-1B (Homo sapiens) (UniProt P36896); experiment: Inhibition of ACVR1B (unknown origin) assessed as remaining activity at 1 uM by Kinome scan method relative to control
[19] = Down regulation of BMX protein expression in human RV-1 cells expressing BMX C496S mutant assessed protein expression level at 2.5 uM pre incubated for 4 hrs followed by compound wash out and additon of CHX and measured after 24 hrs by immunoblot analysis (reference value: 1.01 to 1.13); assay type: functional
[20] = molecular target: Inhibitor of nuclear factor kappa-B kinase subunit beta (Homo sapiens) (UniProt O14920); experiment: Inhibition of IKK-beta (unknown origin) assessed as remaining activity at 1 uM by Kinome scan method relative to control
[21] = Induction of cell cycle arrest in human RV-1 cells assessed as accumulation of cells at G1 phase at 2.5 uM incubated for 5 days in presence of MK2206 by propidium iodide staining based flow cytometric analysis (reference value: 59.7 %); assay type: functional; conditions: time 5 day
[22] = molecular target: Calcium/calmodulin-dependent protein kinase type II subunit alpha (Homo sapiens) (UniProt Q9UQM7); experiment: Inhibition of CAMK2A (unknown origin) assessed as remaining activity at 1 uM by Kinome scan method relative to control
[23] = molecular target: Insulin receptor (Homo sapiens) (UniProt P06213); experiment: Inhibition of INSR (unknown origin) assessed as remaining activity at 1 uM by Kinome scan method relative to control
[24] = molecular target: Aurora kinase A (Homo sapiens) (UniProt O14965); experiment: Inhibition of AURKA (unknown origin) assessed as remaining activity at 1 uM by Kinome scan method relative to control
[25] = molecular target: Ephrin type-A receptor 1 (Homo sapiens) (UniProt P21709); experiment: Inhibition of EPHA1 (unknown origin) assessed as remaining activity at 1 uM by Kinome scan method relative to control
[26] = molecular target: Tyrosine-protein kinase JAK2 (Homo sapiens) (UniProt O60674); experiment: Inhibition of JAK2 JH1 domain (unknown origin) assessed as remaining activity at 1 uM by Kinome scan method relative to control
[27] = molecular target: MAP/microtubule affinity-regulating kinase 3 (Homo sapiens) (UniProt P27448); experiment: Inhibition of MARK3 (unknown origin) assessed as remaining activity at 1 uM by Kinome scan method relative to control
[28] = molecular target: Tyrosine-protein kinase ZAP-70 (Homo sapiens) (UniProt P43403); experiment: Inhibition of ZAP70 (unknown origin) assessed as remaining activity at 1 uM by Kinome scan method relative to control
[29] = molecular target: Bone morphogenetic protein receptor type-1A (Homo sapiens) (UniProt P36894); experiment: Inhibition of BMPR1A (unknown origin) assessed as remaining activity at 1 uM by Kinome scan method relative to control
[30] = molecular target: Serine/threonine-protein kinase MAK (Homo sapiens) (UniProt P20794); experiment: Inhibition of MAK (unknown origin) assessed as remaining activity at 1 uM by Kinome scan method relative to control
RV-1 [31] = experiment: Antiproliferative activity against human RV-1 cells assessed as reduction in cell viability at 500 to 2500 nM incubated for 5 days in presence of WYE125132 by CellTiter-Glo assay; assay type: functional, cell-based; conditions: dose 500-2500 nM, time 5.0 day

Sequence of Tyrosine-protein kinase TXK (Homo sapiens) (P42681 whole entry): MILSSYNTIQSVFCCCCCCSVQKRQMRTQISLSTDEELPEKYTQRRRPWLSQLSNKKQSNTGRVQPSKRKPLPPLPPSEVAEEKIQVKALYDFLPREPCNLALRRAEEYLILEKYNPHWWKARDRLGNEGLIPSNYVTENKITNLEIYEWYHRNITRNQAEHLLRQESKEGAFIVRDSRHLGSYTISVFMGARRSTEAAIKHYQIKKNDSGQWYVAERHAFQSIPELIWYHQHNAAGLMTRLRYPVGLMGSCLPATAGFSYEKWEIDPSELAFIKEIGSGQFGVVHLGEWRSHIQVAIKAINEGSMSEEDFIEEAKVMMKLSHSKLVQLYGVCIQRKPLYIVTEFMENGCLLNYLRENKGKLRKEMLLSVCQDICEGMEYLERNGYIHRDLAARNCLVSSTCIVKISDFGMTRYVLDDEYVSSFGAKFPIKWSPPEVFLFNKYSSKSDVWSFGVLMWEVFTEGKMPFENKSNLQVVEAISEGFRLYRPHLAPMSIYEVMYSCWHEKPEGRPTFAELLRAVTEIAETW
Sequence of MAP/microtubule affinity-regulating kinase 4 (Homo sapiens) (Q96L34 whole entry): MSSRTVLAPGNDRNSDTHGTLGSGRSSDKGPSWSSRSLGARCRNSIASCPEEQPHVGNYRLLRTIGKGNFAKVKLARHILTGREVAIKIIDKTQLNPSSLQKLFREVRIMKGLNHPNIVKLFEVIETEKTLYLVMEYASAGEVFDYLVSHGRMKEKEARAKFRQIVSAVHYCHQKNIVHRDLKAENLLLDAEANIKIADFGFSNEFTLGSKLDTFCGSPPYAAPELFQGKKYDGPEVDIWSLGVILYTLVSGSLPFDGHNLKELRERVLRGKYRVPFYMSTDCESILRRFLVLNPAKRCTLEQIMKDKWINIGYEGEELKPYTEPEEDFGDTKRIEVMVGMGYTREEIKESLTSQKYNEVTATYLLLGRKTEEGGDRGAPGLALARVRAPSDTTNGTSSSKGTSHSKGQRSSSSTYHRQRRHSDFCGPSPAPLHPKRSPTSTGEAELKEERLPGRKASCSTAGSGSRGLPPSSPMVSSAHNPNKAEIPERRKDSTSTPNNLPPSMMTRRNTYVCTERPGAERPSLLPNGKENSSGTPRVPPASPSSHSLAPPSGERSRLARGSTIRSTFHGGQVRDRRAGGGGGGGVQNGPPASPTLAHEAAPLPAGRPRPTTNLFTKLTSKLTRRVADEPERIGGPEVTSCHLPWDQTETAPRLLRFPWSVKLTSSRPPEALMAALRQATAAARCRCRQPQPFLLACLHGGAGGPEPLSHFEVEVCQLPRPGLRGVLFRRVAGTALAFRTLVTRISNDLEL
Sequence of Activin receptor type-1B (Homo sapiens) (P36896 whole entry): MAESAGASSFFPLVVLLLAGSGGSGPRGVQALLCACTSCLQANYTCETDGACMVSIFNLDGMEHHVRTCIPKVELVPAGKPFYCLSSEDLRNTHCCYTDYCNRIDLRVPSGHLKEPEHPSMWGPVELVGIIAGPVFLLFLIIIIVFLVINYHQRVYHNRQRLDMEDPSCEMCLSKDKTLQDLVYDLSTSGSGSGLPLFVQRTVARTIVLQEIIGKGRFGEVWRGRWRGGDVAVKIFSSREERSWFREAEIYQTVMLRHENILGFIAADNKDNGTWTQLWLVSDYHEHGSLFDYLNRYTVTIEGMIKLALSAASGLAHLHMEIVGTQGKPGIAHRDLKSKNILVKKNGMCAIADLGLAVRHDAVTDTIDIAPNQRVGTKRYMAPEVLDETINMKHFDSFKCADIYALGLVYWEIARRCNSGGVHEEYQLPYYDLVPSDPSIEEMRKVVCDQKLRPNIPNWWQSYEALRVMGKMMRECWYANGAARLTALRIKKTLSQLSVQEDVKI
Sequence of Proto-oncogene tyrosine-protein kinase Src (Homo sapiens) (P12931 2-536 limits assumed): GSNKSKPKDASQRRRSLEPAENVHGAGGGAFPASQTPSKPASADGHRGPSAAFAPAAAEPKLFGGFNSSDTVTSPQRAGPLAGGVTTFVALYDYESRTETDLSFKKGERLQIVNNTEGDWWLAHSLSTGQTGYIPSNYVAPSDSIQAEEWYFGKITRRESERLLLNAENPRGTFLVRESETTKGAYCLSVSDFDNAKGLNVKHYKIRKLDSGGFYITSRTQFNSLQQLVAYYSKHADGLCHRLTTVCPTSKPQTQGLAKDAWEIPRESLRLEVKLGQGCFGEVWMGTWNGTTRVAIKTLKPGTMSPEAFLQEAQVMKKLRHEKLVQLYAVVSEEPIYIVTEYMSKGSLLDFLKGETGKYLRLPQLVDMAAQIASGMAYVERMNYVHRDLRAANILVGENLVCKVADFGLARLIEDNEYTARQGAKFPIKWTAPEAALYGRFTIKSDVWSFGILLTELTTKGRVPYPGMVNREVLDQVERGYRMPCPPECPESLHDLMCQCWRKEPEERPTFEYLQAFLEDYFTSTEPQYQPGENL
Sequence of Platelet-derived growth factor receptor beta (Homo sapiens) (P09619 whole entry): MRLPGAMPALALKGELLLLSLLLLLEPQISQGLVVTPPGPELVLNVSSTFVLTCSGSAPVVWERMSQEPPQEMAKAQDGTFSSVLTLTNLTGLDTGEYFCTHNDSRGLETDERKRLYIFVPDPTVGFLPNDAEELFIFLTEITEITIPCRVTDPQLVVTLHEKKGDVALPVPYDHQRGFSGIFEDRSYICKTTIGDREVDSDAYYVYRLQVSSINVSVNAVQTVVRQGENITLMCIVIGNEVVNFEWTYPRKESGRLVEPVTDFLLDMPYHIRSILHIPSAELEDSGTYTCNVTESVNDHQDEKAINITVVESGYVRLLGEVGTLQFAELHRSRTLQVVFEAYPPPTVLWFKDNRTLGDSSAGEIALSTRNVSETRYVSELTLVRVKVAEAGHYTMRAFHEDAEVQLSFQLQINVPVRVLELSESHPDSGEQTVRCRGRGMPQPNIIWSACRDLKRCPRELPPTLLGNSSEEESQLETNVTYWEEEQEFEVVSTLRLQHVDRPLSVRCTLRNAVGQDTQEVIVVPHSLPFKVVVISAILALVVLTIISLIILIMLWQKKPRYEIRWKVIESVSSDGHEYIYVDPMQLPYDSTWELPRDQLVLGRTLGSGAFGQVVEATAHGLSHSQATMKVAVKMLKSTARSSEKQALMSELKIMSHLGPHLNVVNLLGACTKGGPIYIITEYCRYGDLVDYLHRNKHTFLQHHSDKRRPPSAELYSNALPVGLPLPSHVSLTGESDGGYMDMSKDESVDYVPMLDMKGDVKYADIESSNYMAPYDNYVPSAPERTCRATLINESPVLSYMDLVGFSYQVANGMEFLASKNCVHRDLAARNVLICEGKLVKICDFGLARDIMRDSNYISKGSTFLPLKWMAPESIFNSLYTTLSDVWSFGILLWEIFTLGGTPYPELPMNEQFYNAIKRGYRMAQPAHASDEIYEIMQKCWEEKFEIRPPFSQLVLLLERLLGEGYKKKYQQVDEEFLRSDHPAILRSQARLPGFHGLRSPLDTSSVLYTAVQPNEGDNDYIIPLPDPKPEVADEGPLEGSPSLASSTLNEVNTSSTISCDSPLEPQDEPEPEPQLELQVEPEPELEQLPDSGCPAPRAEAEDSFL
Sequence of Megakaryocyte-associated tyrosine-protein kinase (Homo sapiens) (P42679 whole entry): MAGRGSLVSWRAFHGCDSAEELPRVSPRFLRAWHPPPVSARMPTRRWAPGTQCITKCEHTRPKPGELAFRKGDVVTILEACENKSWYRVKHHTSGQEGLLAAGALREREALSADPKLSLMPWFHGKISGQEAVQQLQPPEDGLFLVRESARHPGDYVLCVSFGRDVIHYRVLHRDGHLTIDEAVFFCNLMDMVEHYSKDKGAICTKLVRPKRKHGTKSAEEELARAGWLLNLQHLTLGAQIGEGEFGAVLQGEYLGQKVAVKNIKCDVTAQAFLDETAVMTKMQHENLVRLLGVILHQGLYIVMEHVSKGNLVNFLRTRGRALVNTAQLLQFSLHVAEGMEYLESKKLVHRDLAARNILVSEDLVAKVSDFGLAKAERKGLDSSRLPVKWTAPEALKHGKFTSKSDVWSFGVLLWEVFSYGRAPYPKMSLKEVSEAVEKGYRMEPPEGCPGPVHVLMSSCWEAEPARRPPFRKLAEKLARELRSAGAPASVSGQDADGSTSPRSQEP
Sequence of Platelet-derived growth factor receptor alpha (Homo sapiens) (P16234 whole entry): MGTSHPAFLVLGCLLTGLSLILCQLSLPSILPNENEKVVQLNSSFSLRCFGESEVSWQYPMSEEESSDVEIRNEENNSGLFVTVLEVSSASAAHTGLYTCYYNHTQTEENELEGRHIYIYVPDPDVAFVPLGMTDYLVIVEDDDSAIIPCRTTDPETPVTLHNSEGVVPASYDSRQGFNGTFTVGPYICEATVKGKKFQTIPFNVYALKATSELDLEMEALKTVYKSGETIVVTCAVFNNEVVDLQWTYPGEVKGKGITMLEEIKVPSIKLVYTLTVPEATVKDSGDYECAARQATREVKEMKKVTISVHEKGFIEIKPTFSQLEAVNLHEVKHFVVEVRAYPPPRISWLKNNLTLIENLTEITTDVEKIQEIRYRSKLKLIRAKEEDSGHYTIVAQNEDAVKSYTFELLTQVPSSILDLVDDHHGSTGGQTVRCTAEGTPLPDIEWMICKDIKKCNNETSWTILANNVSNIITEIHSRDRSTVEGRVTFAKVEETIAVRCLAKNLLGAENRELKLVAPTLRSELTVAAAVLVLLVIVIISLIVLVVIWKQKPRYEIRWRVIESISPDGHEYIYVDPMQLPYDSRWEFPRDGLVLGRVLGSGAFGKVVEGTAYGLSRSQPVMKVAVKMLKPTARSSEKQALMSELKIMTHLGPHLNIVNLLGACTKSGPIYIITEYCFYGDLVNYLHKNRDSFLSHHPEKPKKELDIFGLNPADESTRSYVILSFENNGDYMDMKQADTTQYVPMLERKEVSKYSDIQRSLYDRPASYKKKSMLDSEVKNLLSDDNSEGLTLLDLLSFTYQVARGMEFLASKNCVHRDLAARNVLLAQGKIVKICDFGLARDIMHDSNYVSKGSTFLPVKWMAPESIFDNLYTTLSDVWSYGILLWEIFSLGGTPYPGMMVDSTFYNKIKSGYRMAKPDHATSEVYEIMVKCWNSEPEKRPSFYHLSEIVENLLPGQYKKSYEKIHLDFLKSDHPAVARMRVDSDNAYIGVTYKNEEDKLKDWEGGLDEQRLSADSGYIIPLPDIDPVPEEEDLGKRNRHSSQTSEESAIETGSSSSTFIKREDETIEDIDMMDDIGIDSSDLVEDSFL

## C=CC(=O)Nc1cc(-n2c(=O)ccc3cnc4ccc(-c5ccc(NS(C)(=O)=O)cc5)cc4c32)ccc1C
[1]
  Activity: 80%
[2]
  Activity: 87%
[3]
  Activity: 96%
[4]
  Activity: 84%
[5]
  Activity: 88%
[6]
  Activity: 80%
[7]
  Activity: 25%
[8]
  inhibition: inactive
[9]
  Activity: 92%
[10]
  Activity: 99%
[11]
  Activity: 92%
[12]
  Activity: 92%
RV-1 [13]
  Activity: Active
BaF3
  GI50: 4.92 µM
[14]
  Activity: 97%
[15]
  Activity: 76%
[16]
  Activity: 86%
[17]
  Activity: 63%
[18]
  Activity: 84%
[19]
  Activity: 0.83
[20]
  Activity: 93%
[21]
  Activity: 64.2%
[22]
  Activity: 98%
[23]
  Activity: 93%
[24]
  Activity: 75%
[25]
  Activity: 92%
[26]
  Activity: 86%
[27]
  Activity: 75%
[28]
  Activity: 91%
[29]
  Activity: 84%
[30]
  Activity: 70%
RV-1 [31]
  Activity: Active
